Results: paper PMC5629628, “The development of activatable lytic peptides for targeting triple negative breast cancer” (Cell Death Discovery, 2017)

What was measured:
[1] = system: caspase-3/7 in MDA-MB-231 cells; assay: Caspase-3/7 activation analysis; format: cell-based, human; settings: MDA-MB-231, 4 h treatment; Uk14 5 μM, Ur11 10 μM, ABT-737 10 μM
Method: Cells (MDA-MB-231) were plated 10 000 per well on 96-well plates in medium containing 10% fetal bovine serum and incubated with serial dilution of peptides and ABT-737 for 4 h. Then caspase-3/7 activation was measured by addition of the caspase-Glo 3/7 chemiluminescence reagent in accordance with the manufacturer’s protocol (Promega, Madison, WI, USA).

MDA-MB-231 = assay: Cell viability with or without caspase inhibitor Z-VAD-FMK; format: cell-based, human; settings: MDA-MB-231, 24 h treatment, with or without Z-VAD-FMK
Method: (§2) 100 μl of 4×10^4/ml cell suspension (MDA-MB-231, MCF-7, HeLa, SK-OV-3) was placed in each well of the 96-well culture plate and allowed to grow in dulbecco's modified eagle medium or Leibovitz medium (L-15) supplemented with 10% fetal bovine serum overnight. The cells were incubated with serial dilution of compounds at 310 K in 5% fetal bovine serum containing media for 24 h supplied with 5% CO2. At the end of the compounds exposure, 20 μl of 3-(4,5-dimethyl-2-thiazolyl)-2,5-diphenyl-2-H-tetrazolium bromide reagent was added and incubated at 310 K for 4 h. The absorbance of formazan product was measured at 490 nm by a microplate reader (PerkinElmer, Waltham, MA, USA). Cells without peptide were treated as control. *P<0.05, **P<0.01, ***P<0.001 compared with vehicle-treated cells. In Z-VAD-FMK assays, *P<0.05, **P<0.01, ***P<0.001 compared with cells without treatment of Z-VAD-FMK.

mouse red blood cells = assay: Haemolytic activity; format: cell-based; settings: mouse red blood cells 10^8/ml in 0.9% NaCl, 1 h, 310 K, absorbance 570 nm
Method: Fresh mouse red blood cells were collected and centrifuged at 800 rpm for 5 min. The erythrocytes were washed and re suspended in 0.9% NaCl to 10^8/ml. A serial dilution of peptides were added and incubate at 310 K. After 1 h incubation, erythrocytes were centrifuged and the release of hemoglobin was monitored by measuring the absorbance of supernatant at 570 nm by a microplate reader (PerkinElmer).

nude mice = assay: Acute toxicity in mice; format: in vivo; settings: 40 mg/kg (200 μl, 4 mg/ml) intravenous, n=3 per group
Method: (§1) In acute toxicity studies, 12 mice were divided into four groups (n=3 for each group) and administered via intravenous injection with peptide (e8-Uk14, e7-Ur11) at the dose of 20 or 40 mg/kg. In chronic renal toxicity studies, mice were administered via intravenous injection with peptide (e8-Uk14, e7-Ur11) at the dose of 20 mg/kg every other day over a periods of 2 weeks.

HEK293T = assay: Cell viability, non-tumourigenic HEK293T; format: cell-based; settings: 24 h treatment
Method: as §2

MDA-MB-231 tumour = assay: In vivo fluorescence imaging and tissue distribution; design: species or system mice; settings: Cy5-labelled peptides, n=2
Method: Four-week-old nude mice were purchased from the Vital River (Beijing, China) and allowed to grow for further two weeks. Approximately 1×10^6 MDA-MB-231 cells were injected into the mammary fat pads of female mice in a vehicle of 4 mg/ml Matrigel (Becton Dickinson and Co., New York, NY, USA). One week later, mice bearing tumours around 50 mm^3 in volume were randomly divided into groups for subsequent experiments.
For optical imaging, mice were anesthetized with isoflurane. Cy5-labelled peptides were injected intravenously at a dose of 100 μl, 50 μM. At each time point, mice were again anesthetized and imaged using IVIS Spectrum Pre-clinical In Vivo Imaging System (640 nm/680 nm). Fluorescence in manually set regions of interest was quantified by Living Image. The contrast ratio was calculated by dividing the tumour fluorescence by the chest and abdomen fluorescence.

kidney = assay: Chronic renal toxicity, kidney haematoxylin-eosin staining; format: in vivo, mice; settings: 20 mg/kg i.v. every other day over 2 weeks
Method: as §1

| SMILES | caspase-3/7 activation [1] | effect of caspase inhibitor Z-VAD-FMK on cytotoxic effect (MDA-MB-231) | haemolytic activity (mouse red blood cells) | acute toxicity (survival) (nude mice) | cytotoxicity against non-tumourigenic HEK293T (HEK293T) | tumour accumulation (in vivo fluorescence imaging) (MDA-MB-231 tumour; 100 μl 50 μM, tail vein, MDA-MB-231 tumour-bearing mice) | uptake in excised tumour (MDA-MB-231 tumour; organs excised 6 h after injection) | kidney histology (haematoxylin-eosin staining) (kidney) |
| --- | --- | --- | --- | --- | --- | --- | --- | --- |
| CN(C)CC[C@H](CSc1ccccc1)Nc1ccc(S(=O)(=O)NC(=O)c2ccc(N3CCN(Cc4ccccc4-c4ccc(Cl)cc4)CC3)cc2)cc1[N+](=O)[O-] [ABT-737, reference compound] | observed | did have an inhibitory effect | – | – | – | – | – | – |
| CC(=O)N[C@H](Cc1c[nH]c2ccccc12)C(=O)NCCC(=O)N[C@H](CCC(=O)O)C(=O)N[C@H](CCC(=O)O)C(=O)N[C@H](CCC(=O)O)C(=O)N[C@H](CCC(=O)O)C(=O)N[C@H](CCC(=O)O)C(=O)N[C@H](CCC(=O)O)C(=O)N[C@H](CCC(=O)O)C(=O)NCCCCCC(=O)N1CCC[C@H]1C(=O)N[C@@H](CC(C)C)C(=O)NCC(=O)N[C@@H](CC(C)C)C(=O)N[C@@H](C)C(=O)NCC(=O)N[C@H](CCCNC(=N)N)C(=O)N[C@H](CC(C)C)C(=O)NC(C)(C)C(=O)N[C@H](CCCNC(=N)N)C(=O)N[C@H](CCCNC(=N)N)C(=O)N[C@H](CC(C)C)C(=O)NC(C)(C)C(=O)N[C@H](CCCNC(=N)N)C(=O)N[C@H](CC(C)C)C(=O)NC(C)(C)C(=O)N[C@H](CCCNC(=N)N)C(N)=O [e7-Ur11] | – | – | diminished membrane disruption and haemolysis | caused death (one in three survived) | no obvious cytotoxicity | significantly higher accumulation in tumours compared to unmodified peptides | higher compared to UK14 and Ur11 | bleeding was observed at the junction of renal |
